Data taken from US5554728A, “Lipid conjugates of therapeutic peptides and protease inhibitors” (priority 1991, dated 1996).
Read-outs that look alike come from different tables or passages of the source. Non-standard residues stand in square brackets, D forms with d. Residues, ends and D or L forms follow the SMILES beside them. *: point of attachment. d1Nal = N[C@H](Cc1cccc2ccccc12)C(=O)O; d2Nal = N[C@H](Cc1ccc2ccccc2c1)C(=O)O; Isobutyloxycarbonyl = CC(C)COC(=O)*; Hica(2S) = CC(C)C[C@H](O)C(=O)O; Pip = O=C(O)[C@@H]1CCCCN1

Tested on: HIV
Type: cell-based
Method: Assay For The Reduction of HIV Syncytia Formed In HT4-6C Cells
The syncytia reduction assay as described by Larder, B. et al., science 243:1731-1734(1989) was used to measure the antiviral effect of protease inhibitor. A Hela cell line, HT4-6C, expressing the human CD4 receptor on its surface was trypsinized with 0.25% trypsin for 5 min. Cells were centrifuged to remove the residual trypsin, and the cell pellet was resuspended in DMEM with 10% FCS. HeLa cells were plated in 96 well plate (1×10^5 cells/well) overnight. Cell cultures were infected with HIV (approx. 100 PFU/well) for one hour. The […] were then prepared in stock solutions, and were then two fold diluted in 2% DMEM with 0.5% methylcellulose. 100 μl of each diluted antiviral agent is added into each well of HIV infected cells. The treated cell cultures were incubated in 37° C. CO2 incubator for 24 hours. Plates of HIV-infected cell cultures were fixed with methanol and stained with 1% crystal violet for 10 min., the dye is rinsed off with tap water. Each plate is dried and syncytia were counted. The antiviral effect of protease inhibitor is calculated by 50% syncytia reduction.

[1] = antiviral effect calculated by 50% syncytia reduction, HIV-infected HT4-6C (HeLa, human CD4) cells, 24 hours incubation, read-out: IC50

| Structure (SMILES) | IC50 (24 h) | IC50 [1] |
| --- | --- | --- |
| CC(C)COC(=O)N[C@H](Cc1ccccc1)C(=O)N[C@H](Cc1cccc2ccccc12)C(=O)N1CCCC[C@H]1C(=O)O[C@@H](CC(C)C)C(=O)N[C@H](C(N)=O)C(C)C [EXAMPLE 27-40, i-Boc-(D-Phe)-(D-a-Nal)-Pip-(a-(OH)-Leu)-Val-NH2] (Isobutyloxycarbonyl-[dF][d1Nal][Pip][Hica(2S)]V-NH2) | 10 µM | – |
| CC(C)C(NC(=O)OC(C)(C)C)C(=O)NC(Cc1ccccc1)C(=O)OCC(O)C(O)COC(=O)C(Cc1ccccc1)NC(=O)C(NC(=O)OC(C)(C)C)C(C)C (stereo not drawn) [EXAMPLE 24, (Boc-Val-Phe-O--CH2 --CHOH)2] | – | 1 µM |
| COC(=O)[C@@H]1CCCCN1C(=O)[C@@H](Cc1ccc2ccccc2c1)NC(=O)[C@H](C)NC(=O)[C@H](C)NC(C)=O [EXAMPLE 27-30, Ac-Ala-Ala-(D-b-Nal)-Pip-OMe] (Ac-AA[d2Nal][Pip]-OMe) | > 100 µM | – |
| CC(C)(C)OC(=O)NC(CO)C(=O)NC(Cc1ccccc1)C(=O)OCC(O)C(O)COC(=O)C(Cc1ccccc1)NC(=O)C(CO)NC(=O)OC(C)(C)C (stereo not drawn) [EXAMPLE 25, (Boc-Ser-Phe-O--CH2 --CHOH)2] | – | 3 µM |
